Source: paper PMC8943889, “Synthetic studies with the brevicidine and laterocidine lipopeptide antibiotics including analogues with enhanced properties and in vivo efficacy” (Chemical Science, 2022)
In brackets after ≈: the same amount, converted by molar mass. Where two headings read alike, the source gives them in different places. Positions of bridges follow the written chain, without caps; N, C: chain ends. Non-standard residues stand in square brackets, D forms with d. Residues, ends and D or L forms follow the SMILES beside them. *: point of attachment. Octanoyl(7-Me) = CC(C)CCCCCC(=O)*; dOrn = NCCC[C@@H](N)C(=O)O; Orn = NCCC[C@H](N)C(=O)O; Dap = NC[C@H](N)C(=O)O

Assays:
[1] = In vivo tolerability study; settings: naïve ICR mice, subcutaneous, 40 mg kg^−1 q8h over 24 h (total daily dose 120 mg kg^−1)
Description: (§1) In vivo tolerability and efficacy studies
(§2) Ethical Issues. Animal experiments were performed under UK Home Office Licences P89653310 (tolerability and PK) and PA67E0BAA (thigh efficacy), with local ethical committee clearance.
(§3) Animal Strain. Mice used in these studies were supplied by Charles River (Margate UK) and were specific pathogen free. The strain of mice used was ICR (also known as CD1 Mice) which is a well characterized outbred murine strain. Mice (male) were 11-15 g on receipt and were allowed to acclimatise for at least 7 days.
(§4) Animal Housing. Mice were housed in sterilised individual ventilated cages exposing the mice at all times to HEPA filtered sterile air. Mice had free access to food and water and had aspen chip bedding (changed at least once weekly). The room temperature was 22°C +/ - 1°C, with a relative humidity of 60% and maximum background noise of 56 dB. Mice were exposed to 12 h light/dark […]
Test compounds. Compound 6 was dissolved in water for injection in which it formed a clear colourless solution. Polymyxin B was dissolved in saline for injection to produce a clear colourless […]
Tolerability study. The tolerability of compound 6 was assessed in the same mouse strain used for the efficacy studies. Compound 6 was administered via subcutaneous administration route at 3 8-h […]
The mice used in the tolerability study were naïve and were not immunosuppressed or infected. […]

K. pneumoniae ATCC 11228 = assay type: cell-based; settings: ATCC 11228, 16 h
Summary of the method: (§5)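 CLSI broth microdilution, MHB, polypropylene plates; inoculum 2 × 10^5 CFU mL−1 (final); 16 h, 37°C, 220 rpm; visual endpoint; n = 3 technical.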

A. baumannii 2018-006 = assay type: cell-based; settings: 2018-006, 16 h
Summary of the method: as §5

S. aureus USA300 = assay type: cell-based; settings: USA300, 16 h
Summary of the method: (§6)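 MIC = lowest concentration with no visible growth after 16 h at 37°C, 220 rpm, in MHB. Inoculum 2 × 10^5 CFU mL−1 from TSB cultures at OD600 0.5. CLSI broth microdilution, technical triplicates.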

P. aeruginosa ATCC 27853 = assay type: cell-based; settings: ATCC 27853, 16 h
Summary of the method: as §6

K. pneumoniae 2048 = assay type: cell-based; settings: 2048, 16 h
Summary of the method: as §5

P. aeruginosa PAO1 = assay type: cell-based; settings: PAO1, 16 h
Summary of the method: as §5

A. baumannii ATCC 17961 = assay type: cell-based; settings: ATCC 17961, 16 h
Summary of the method: as §5

K. pneumoniae ATCC 13883 = assay type: cell-based; settings: ATCC 13883, 16 h
Summary of the method: as §5

E. coli ATCC 25922 [2] = assay type: cell-based
Summary of the method: as §5

K. pneumoniae JS-123 = assay type: cell-based; settings: JS-123, 16 h
Summary of the method: as §5

P. aeruginosa M-120 = assay type: cell-based; settings: M-120, 16 h
Summary of the method: as §5

A. baumannii ATCC 17978 = assay type: cell-based; settings: ATCC 17978, 16 h
Summary of the method: as §5

P. aeruginosa NRZ-03961 = assay type: cell-based; settings: NRZ-03961, 16 h
Summary of the method: as §5

E. coli ATCC 25922 [3] = assay: Neutropenic mouse thigh infection efficacy study; assay type: in vivo, mice (ICR); settings: neutropenic mice
Description: as §1, §2, §3, §4
Test compounds. Compound 6 was dissolved in water for injection in which it formed a clear […]
colourless solution. […]
Compound 6 was administered via subcutaneous administration route at 3 8-h […]
The mice used in the tolerability study were naïve and were not immunosuppressed or infected.
Efficacy study. The in vivo efficacy of compound 6 was assessed in a mouse thigh abscess model where both thighs of each mouse were infected with E. coli ATCC 25922
Immunosuppression. […]
Endpoints. One h and 20.5 (planned 25) h post-infection, the clinical condition of all animals was assessed prior to humane euthanasia using pentobarbitone overdose, and the thighs were removed and weighed. Thigh samples were homogenized in 3mL ice cold sterile PBS; the homogenates were quantitatively cultured onto CLED agar and incubated at 37°C for 18 - 24 h before colonies were […]
Data analysis. The data from the culture burdens were analysed using appropriate non-parametric statistical models (Kruskal-Wallis using Conover-Inman to make all pairwise comparisons between groups) with StatsDirect software v. […]

With CC[C@H](C)[C@@H]1NC(=O)[C@@H](NC(=O)[C@H](Cc2c[nH]c3ccccc23)NC(=O)[C@@H](CCCN)NC(=O)CNC(=O)[C@H](CCCN)NC(=O)[C@@H](CCCN)NC(=O)[C@@H](Cc2c[nH]c3ccccc23)NC(=O)[C@@H](Cc2ccc(O)cc2)NC(=O)[C@@H](CO)NC(=O)CCCCCC(C)C)CNC(=O)CNC(=O)CNC(=O)[C@H](CC(N)=O)NC1=O [Dap9-Lat (6), Dap9-laterocidamide] ({Octanoyl(7-Me)}-[dS][dY][dW][dOrn][Orn]G[dOrn]W[Dap]INGG; lactam 9-C) as the molecule, how does the tolerability [1] read?
The tolerability was “well tolerated”.

And the tolerability ([1]; listed as 6)?
Its tolerability is “good tolerability”.

And the MIC (K. pneumoniae ATCC 11228)?
The MIC was 2 µg/mL (≈ 1.26 µM).

And the MIC (A. baumannii 2018-006)?
The MIC was 4 µg/mL (≈ 2.52 µM).

And the MIC (S. aureus USA300)?
Its MIC is over 64 µg/mL.

What about the MIC (P. aeruginosa ATCC 27853) of the same molecule?
Its MIC is 0.5 to 1 µg/mL.

And the MIC (K. pneumoniae 2048)?
The MIC was 2 µg/mL (≈ 1.26 µM).

And the MIC (P. aeruginosa PAO1)?
Its MIC is 1 to 2 µg/mL.

What about the MIC (A. baumannii ATCC 17961) of the same molecule?
The MIC was 4 µg/mL (≈ 2.52 µM).

What about the MIC (K. pneumoniae ATCC 13883) of the same molecule?
The MIC was 2 µg/mL (≈ 1.26 µM).

What about the MIC (E. coli ATCC 25922 [2]; ATCC 25922, 16 h) of the same molecule?
The MIC was 1 µg/mL (≈ 0.629 µM).

What about the MIC (E. coli ATCC 25922 [2]; Ec ATCC 25922, broth microdilution (CLSI), MHB, 2 × 10^5 CFU/mL, 16 h 37 °C, visual read-out, three technical replicates) of the same molecule?
The MIC was 1.0 µg/mL (≈ 0.629 µM).

What about the MIC (K. pneumoniae JS-123) of the same molecule?
The MIC was 0.5 µg/mL (≈ 0.314 µM).

And the MIC (P. aeruginosa M-120)?
The MIC was 1 to 2 µg/mL.

What about the MIC (A. baumannii ATCC 17978) of the same molecule?
Its MIC is 4 µg/mL (≈ 2.52 µM).

What about the MIC (P. aeruginosa NRZ-03961) of the same molecule?
The MIC was 2 µg/mL (≈ 1.26 µM).

What about the “dose response of thigh burden” value (E. coli ATCC 25922 [3]; E. coli ATCC 25922 thigh infection, 10, 20 and 40 mg kg^−1 SC q8h) of the same molecule?
The value was “clear dose response”.

What about the “reduction in bacterial load relative to the untreated group” value (E. coli ATCC 25922 [3]; thigh infection with E. coli ATCC 25922, 40 mg kg^−1 SC q8h starting 1 h post-infection, thigh burden cfu g^−1 at 20.5 h) of the same molecule?
The value was about 5 log.
